From US10822337B2, “TGF-β inhibitorC” (Rigel Pharmaceuticals, Inc., priority 2015, dated 2020)

Key:
[1] = test system: GDF8 signaling (GDF pSMAD, MPC11); test: AlphaScreen SureFire SMAD3 (p-Ser423/425) assay, inhibition of GDF8 signaling; type: cell-based; settings: Mus musculus, MPC-11, p-SMAD-3 (Ser423/425) in cell lysate after GDF8 stimulation
Text: (§1) Example 2: AlphaScreen® SureFire® SMAD3 (p-Ser423/425) Assay
(§2) The p-SMAD-3 (Ser423/425) SureFire® assay has been designed to measure the phosphorylation of endogenous cellular p-SMAD-3 (Ser423/425) in cell lysates and is a system for the screening of both modulators of receptor activation (e.g. agonists and antagonists) as well as agents acting intracellularly, such as small molecule inhibitors of upstream events. The assay will measure p-SMAD-3 (Ser423/425) activation by either cloned or endogenous receptors, and can be applied to primary cells.
(§3) 1× Lysis buffer: 1 ml of 5× Lysis buffer was diluted with 4 ml of sterile water. After dilution, excess 1× Lysis buffer can be frozen and thawed up to 5 times without loss in activity.
(§4) P-SMAD-3 (Ser423/425) SureFire® Assay Protocols
(§5) Step A: Preparation of Buffers
(§6) Activation buffer: The buffer was warmed slowly to 37° C. and gently mixed to re-suspend. Activation buffer can be stored at room temperature with no loss in activity.
(§7) Reaction buffer: The buffer was kept at 4° C. while in use.
(§8) AlphaScreen® Protein A IgG Kit: The kit was stored at 4° C. in the dark.
(§9) Reaction buffer+Activation buffer+AlphaScreen® Acceptor beads: Reaction buffer (40 parts), Activation Buffer (10 parts) and Acceptor beads (1 part) were mixed and the mixture was stored at room temperature and used the same day. Mixture was added to 384-well plates; excess mixturewas discarded.
(§10) Dilution buffer+AlphaScreen® Donor beads: Dilution buffer (20 parts) and Donor beads (1 part) were mixed and the mixture was stored at room temperature and used the same day. Excess mixture was discarded.
(§11) Assay control samples: After reconstitution in 250 μl of water, lysates were at −20° C. in single use aliquots.
(§12) Step B: Preparation of Samples and Cells
(§13) 96-well Assay Protocol for 293FT and RMS13 adherent cells can be carried out manually or in high throughput with liquid handling robots.
(§14) The cells (80 μL of cells for 96 well plates) were plated in collagen coated tissue culture plates in RPMI or FreeStyle medium (Invitrogen) and incubated overnight. For manual analysis, 6 plates for GDF8, 6 plates for TGFβ, and optionally 6 plates for Alk5ca(ALKS constitutively active) were used.
(§15) The compound dilution plates were prepared as follows: 12 μL of DMSO was transferred into first column of 96-well plate, and 16 μL of DMSO was transferred into columns 2-12 of the 96-well plate. 12 μL of compound solution was transferred into first column of the DMSO-containing 96-well plate. Three-fold dilution was performed up to column 10 of the DMSO-containing 96-well plate.
(§16) Step C: Treatment and Analysis
(§17) The plate containing cells were treated with compounds for about 10 minutes, and then ligand was added. GDF8 or TGFb was added to plates to stimulate. 293FL cells were stimulatedfor 90 minutes at 37° C.; and RMS13 cells were stimulated for 60 minutes at 37° C. The medium was then removed from the cells, and 1× Lysis Buffer (about 25 μL) was added and the plate was gently agitated on plate shaker for 5-10 minutes.
(§18) The lysate (5 μL) was then placed into 384-well shallow plates avoiding the generation of bubbles. To this, the Reaction Buffer+Activation Buffer+AlphaScreen® Acceptor beadsmixture (5 μL) was added. The plate was sealed with adhesive cover and shielded from light (e.g., with metal foil), and agitated gently on plate shaker for 2 hours at room temperature.
(§19) Dilution buffer+AlphaScreen® Donor beads (2 μL) was then added, and the plate was intubated on the plate shaker for an additional 1½ hours. After completion, the plate was read on Synergy-4 or Enspire plate reader, using AlphaScreen® pSMAD3® settings.
(§20) Representative results for inhibition of GDF8 (data=GDF pSMAD (MPC11) (μM)) and TGF-β (data=TGF-β pSMAD (MPC-11) (μM)) signaling are shown in Table 1: […]

[2] = test system: TGF-β signaling (TGF-β pSMAD, MPC-11); test: AlphaScreen SureFire SMAD3 (p-Ser423/425) assay, inhibition of TGF-β signaling; type: cell-based; settings: Mus musculus, p-SMAD-3 (Ser423/425) in cell lysate after TGF-β stimulation
Text: as §1, §2, §3, §4, §5, §6, §7, §8, §9, §10, §11, §12, §13, §14, §15, §16, §17, §18, §19, §20

| Compound | IC50 [1] [nM] | IC50 [2] [nM] |
| --- | --- | --- |
| Fc1c(Cl)cccc1-c1nn2c(c1-c1ccc3ncnn3c1)CCC2 [Compound 141, 6-(2-(3-Chloro-2-fluorophenyl)-5,6-dihydro-4H-pyrrolo[1,2-b]pyrazol-3-yl)-[1,2,4]triazolo[1,5-a]pyridine] | 208 | 703 |
| Fc1ccc(-c2nn3c(c2-c2ccc4nccnc4c2)CCC3)cc1F [Compound 89, 6-(2-(3,4-Difluorophenyl)-5,6-dihydro-4H-pyrrolo[1,2-b]pyrazol-3-yl)quinoxaline] | 418 | 1620 |
| Fc1cc(F)c(-c2nn3c(c2-c2ccc4ncsc4c2)CCC3)cc1Cl [Compound 189, 6-(2-(5-Chloro-2,4-difluorophenyl)-5,6-dihydro-4H-pyrrolo[1,2-b]pyrazol-3-yl)benzo[d]thiazole] | 130 | 232 |
| Fc1ccc(-c2nn3c(c2-c2ccc4cn[nH]c4c2)CCC3)c(F)c1 [Compound 92, 6-(2-(2,4-Difluorophenyl)-5,6-dihydro-4H-pyrrolo[1,2-b]pyrazol-3-yl)-1H-indazole] | 228 | 1100 |
| FC(F)(F)c1cccc(-c2nn3c(c2-c2ccc4ncsc4c2)OCC3)c1 [Compound 62, 7-(Benzo[d]thiazol-6-yl)-6-(3-trifluoromethylphenyl)-2,3-dihydropyrazolo[5,1-b]oxazole] | 272 | 787 |
| Fc1ccc(-c2nn3c(c2-c2ccc4ncccc4c2)OCC3)cc1 [Compound 69, 6-(4-Fluorophenyl)-7-(quinolin-6-yl)-2,3-dihydropyrazolo[5,1-b]oxazole] | 1260 | 7810 |
| FC(F)(F)c1cccc(-c2nn3c(c2-c2ccc4[nH]ncc4c2)OCC3)c1 [Compound 59, 7-(1H-Indazol-5-yl)-6-(3-trifluoromethylphenyl)-2,3-dihydropyrazolo[5,1-b]oxazole] | 217 | 701 |
| COc1cccc(-c2nn3c(c2-c2ccc4nccn4c2)OCC3)c1 [Compound 73, 7-(Imidazo[1,2-a]pyridin-6-yl)-6-(3-methoxyphenyl)-2,3-dihydropyrazolo[5,1-b]oxazole] | 329 | 1490 |
| Fc1ccc(F)c(-c2nn3c(c2-c2ccc4[nH]ncc4c2)CCC3)c1 [Compound 1, 5-(2-(2,5-difluorophenyl)-5,6-dihydro-4H-pyrrolo[1,2-b]pyrazol-3-yl)-1H-indazole] | 592 | 2030 |
| Cc1c(F)ccc(-c2nn3c(c2-c2ccc4ncnn4c2)CCC3)c1F [Compound 173, 6-(2-(2,4-Difluoro-3-methyphenyl)-5,6-dihydro-4H-pyrrolo[1,2-b]pyrazol-3-yl)-[1,2,4]triazolo[1,5-a]pyridine] | 131 | 335 |
| Cc1cc(-c2nn3c(c2-c2ccc4ncsc4c2)CCC3)ccc1F [Compound 17, 6-(2-(4-Fluoro-3-methylphenyl)-5,6-dihydro-4H-pyrrolo[1,2-b]pyrazol-3-yl)benzo[d]thiazole] | 122 | 375 |
| Fc1ccc(-c2nn3c(c2-c2ccc4ncsc4c2)CCC3)cc1OC(F)(F)F [Compound 152, 6-(2-(4-Fluoro-3-trifluoromethoxyphenyl)-5,6-dihydro-4H-pyrrolo[1,2-b]pyrazol-3-yl)benzo[d]thiazole] | 486 | 1750 |
| Cc1cc(-c2nn3c(c2-c2ccc4nccn4c2)CCC3)ccc1F [Compound 20, 6-(2-(4-Fluoro-3-methylphenyl)-5,6-dihydro-4H-pyrrolo[1,2-b]pyrazol-3-yl)imidazo[1,2-a]pyridine] | 121 | 366 |
| Fc1ccc(-c2nn3c(c2-c2ccc4[nH]ncc4c2)CCC3)cc1Cl [Compound 142, 5-(2-(3-Chloro-4-fluorophenyl)-5,6-dihydro-4H-pyrrolo[1,2-b]pyrazol-3-yl)-1H-indazole] | 153 | 344 |
| Fc1ccc(-c2nn3c(c2-c2ccc4ncnn4c2)CCC3)cc1F [Compound 110, 6-(2-(3,4-Difluorophenyl)-5,6-dihydro-4H-pyrrolo[1,2-b]pyrazol-3-yl)-[1,2,4]triazolo[1,5-a]pyridine] | 126 | 584 |
| Fc1cc(F)c(-c2nn3c(c2-c2ccc4ncccc4c2)CCC3)cc1F [Compound 117, 6-(2-(2,4,5-Trifluorophenyl)-5,6-dihydro-4H-pyrrolo[1,2-b]pyrazol-3-yl)quinoline] | 156 | 1490 |
| Fc1c(Cl)cccc1-c1nn2c(c1-c1ccc3ncsc3c1)CCC2 [Compound 140, 6-(2-(3-Chloro-2-fluorophenyl)-5,6-dihydro-4H-pyrrolo[1,2-b]pyrazol-3-yl)benzo[d]thiazole] | 504 | 842 |
| Fc1ccc(-c2nn3c(c2-c2ccc4nccnc4c2)CCC3)cc1Cl [Compound 147, 6-(2-(3-Chloro-4-fluorophenyl)-5,6-dihydro-4H-pyrrolo[1,2-b]pyrazol-3-yl)quinoxaline] | 204 | 687 |

These reach a lower IC50 [1]. Values come first.

| IC50 [1] [nM] | IC50 [2] [nM] | Compound |
| --- | --- | --- |
| 67.5 | 77.4 | FC(F)(F)Oc1cccc(-c2nn3c(c2-c2ccc4[nH]ncc4c2)CCC3)c1 [Compound 122, 5-(2-(3-Trifluoromethoxyphenyl)-5,6-dihydro-4H-pyrrolo[1,2-b]pyrazol-3-yl)-1H-indazole] |
| 22.6 | 57.9 | Cc1cccc(-c2nn3c(c2-c2ccc4ncn(C)c4c2)OCC3)c1 [Compound 38, 7-(1-Methyl-1H-benzo[d]imidazol-6-yl)-6-(m-tolyl)-2,3-dihydropyrazolo[5,1-b]oxazole] |
| 72.4 | 398 | Clc1cccc(-c2nn3c(c2-c2ccc4nccnc4c2)CCC3)c1 [Compound 57, 6-(2-(3-Chlorophenyl)-5,6-dihydro-4H-pyrrolo[1,2-b]pyrazol-3-yl)quinoxaline] |
| 100 | 343 | Fc1ccc(-c2nn3c(c2-c2ccc4nccn4c2)CCC3)cc1Cl [Compound 144, 6-(2-(3-Chloro-4-fluorophenyl)-5,6-dihydro-4H-pyrrolo[1,2-b]pyrazol-3-yl)imidazo[1,2-a]pyridine] |
| 43.6 | 66 | Fc1cc(F)c(-c2nn3c(c2-c2ccc4ncnn4c2)CCC3)cc1Cl [Compound 192, 6-(2-(5-Chloro-2,4-difluorophenyl)-5,6-dihydro-4H-pyrrolo[1,2-b]pyrazol-3-yl)-[1,2,4]triazolo[1,5-a]pyridine] |
| 70.4 | 517 | Fc1ccc(-c2nn3c(c2-c2ccc4[nH]ncc4c2)CCC3)cc1F [Compound 83, 5-(2-(3,4-Difluorophenyl)-5,6-dihydro-4H-pyrrolo[1,2-b]pyrazol-3-yl)-1H-indazole] |
| 66.2 | 373 | Fc1cc(F)c(-c2nn3c(c2-c2ccc4nccn4c2)CCC3)cc1F [Compound 115, 6-(2-(2,4,5-Trifluorophenyl)-5,6-dihydro-4H-pyrrolo[1,2-b]pyrazol-3-yl)imidazo[1,2-a]pyridine] |
| 112 | 225 | Cc1cc(-c2nn3c(c2-c2ccc4ncsc4c2)CCC3)c(F)cc1F [Compound 182, 6-(2-(2,4-Difluoro-5-methylphenyl)-5,6-dihydro-4H-pyrrolo[1,2-b]pyrazol-3-yl)benzo[d]thiazole] |
| 46.6 | 139 | Fc1ccc(Cl)cc1-c1nn2c(c1-c1ccc3ncccc3c1)CCC2 [Compound 176, 6-(2-(5-Chloro-2-fluorophenyl)-5,6-dihydro-4H-pyrrolo[1,2-b]pyrazol-3-yl)quinoline] |
